Assay: Measurement of log P values by HPLC on reversed phase columns (EEC directive 79/831 Annex V.A8; methods [a] pH 2.3, [b] pH 2.7, [c] pH 7.8)
Assay type: physicochemical
Protocol: Measurement of log P-values:
Measurement of log P values was performed according EEC directive 79/831 Annex V.A8 by HPLC (High Performance Liquid Chromatography) on reversed phase columns with the following methods:
^[a] Measurement was done at pH 2.3 with 0.1% phosphoric acid and acetonitrile as eluent with a linear gradient from 10% acetonitrile to 95% acetonitrile.
^[b] measurement of LC-MS was done at pH 2.7 with 0.1% formic acid in water and with acetonitrile (contains 0.1% formic acid) as eluent with a linear gradient from 10% acetonitrile to 95% acetonitrile.
^[c] Measurement with LC-MS was done at pH 7.8 with 0.001 molar ammonium hydrogen carbonate solution in water as eluent with a linear gradient from 10% acetonitrile to 95% acetonitrile.
Calibration was done with not branched alkan2-ones (with 3 to 16 carbon atoms) with known log P-values (measurement of log P values using retention times with linear interpolation between successive alkanones).. lambda-maX-values were determined using UV-spectra from 200 nm to 400 nm and the peak values of the chromatographic signals.

[1] = method [b]: LC-MS, pH 2.7, 0.1% formic acid in water / acetonitrile
[2] = method [c]: LC-MS, pH 7.8, 0.001 molar ammonium hydrogen carbonate / acetonitrile
[3] = method [b]: LC-MS at pH 2.7, 0.1% formic acid in water / acetonitrile
[4] = method [c]: LC-MS at pH 7.8, 0.001 molar ammonium hydrogen carbonate in water / acetonitrile

| logP [1] | SMILES | further results |
| --- | --- | --- |
| 1.93^[b] | COC(CNC(=O)c1cn(C)nc1C(F)F)c1ccccc1 (centres unmarked) [Compound 16] |  |
| 3.55^[b] | COC(CNC(=O)c1c(C(F)F)nn(C)c1Cl)c1cc(Cl)cc(Cl)c1 (centres unmarked) [Compound 40] |  |
| 3.33^[b] | COC(CNC(=O)c1c(C(F)F)nn(C)c1F)c1cc(Cl)cc(Cl)c1 (centres unmarked) [Compound 41] |  |
| 3.92^[b] | COC(c1cc(Cl)cc(Cl)c1)C(C)NC(=O)c1c(C(F)F)nn(C)c1Cl (centres unmarked) [Compound 42] |  |
| 3.70^[b] | COC(c1cc(Cl)cc(Cl)c1)C(C)NC(=O)c1c(C(F)F)nn(C)c1F (centres unmarked) [Compound 43] |  |
| 3.48^[b] | COC(CNC(=O)c1c(C(F)F)nn(C)c1Cl)c1ccc(Cl)cc1Cl (centres unmarked) [Compound 44] |  |
| 3.25^[b] | COC(CNC(=O)c1c(C(F)F)nn(C)c1F)c1ccc(Cl)cc1Cl (centres unmarked) [Compound 45] |  |
| 4.46^[b] | CCOC(c1ccc(Cl)cc1Cl)C(C)NC(=O)c1c(C(F)F)nn(C)c1Cl (centres unmarked) [Compound 46] |  |
| 4.20^[b] | CCOC(c1ccc(Cl)cc1Cl)C(C)NC(=O)c1c(C(F)F)nn(C)c1F (centres unmarked) [Compound 47] |  |
| 4.18^[b] | CCC(NC(=O)c1c(C(F)F)nn(C)c1Cl)C(OC)c1ccc(Cl)cc1Cl (centres unmarked) [Compound 48] |  |
| 3.94^[b] | CCC(NC(=O)c1c(C(F)F)nn(C)c1F)C(OC)c1ccc(Cl)cc1Cl (centres unmarked) [Compound 49] |  |
| 3.70^[b] | COC(c1ccc(Cl)cc1Cl)C1(NC(=O)c2c(C(F)F)nn(C)c2Cl)CC1 (centres unmarked) [Compound 50] |  |
| 3.46^[b] | COC(c1ccc(Cl)cc1Cl)C1(NC(=O)c2c(C(F)F)nn(C)c2F)CC1 (centres unmarked) [Compound 51] |  |
| 2.71^[b] | CCn1nc(C)c(C)c1C(=O)NC(C)C(OC)c1ccccc1 (centres unmarked) [Compound 55] |  |
| 4.34^[b] | COC(c1ccc(Cl)cc1)C(C)NC(=O)c1snc(Cl)c1Cl (centres unmarked) [Compound 61] |  |
| 2.84^[b] | COC(c1ccc(Cl)cc1)C(C)NC(=O)c1ccsc1 (centres unmarked) [Compound 62] |  |
| 2.81^[b] | COC(CNC(=O)c1c(F)cccc1F)c1ccc(Cl)cc1 (centres unmarked) [Compound 72] | logP [2]: 2.79^[c]; |
| 4.80^[b] | COC(c1ccc(Cl)cc1Cl)C(C)(C)NC(=O)c1ccccc1F (centres unmarked) [Compound 74] | logP [2]: 4.77^[c]; |
| 4.59^[b] | COC(c1ccc(Cl)cc1Cl)C(C)(C)NC(=O)c1ccccc1Cl (centres unmarked) [Compound 75] | logP [2]: 4.54^[c]; |
| 4.68^[b] | COC(c1ccc(Cl)cc1Cl)C(C)(C)NC(=O)c1ccccc1C(F)(F)F (centres unmarked) [Compound 76] | logP [2]: 4.62^[c]; |
| 4.29^[b] | COC(c1ccc(Cl)cc1Cl)C(C)(C)NC(=O)c1c(F)cccc1F (centres unmarked) [Compound 77] | logP [2]: 4.24^[c]; |
| 5.34^[b] | COC(c1ccc(Cl)cc1Cl)C(C)(C)NC(=O)c1sccc1Cl (centres unmarked) [Compound 78] | logP [2]: 5.31^[c]; |
| 4.59^[b] | COC(c1ccc(Cl)cc1Cl)C(C)(C)NC(=O)c1occc1Br (centres unmarked) [Compound 80] | logP [2]: 4.37^[c]; |
| 3.24^[b] | COC(c1ccc(Cl)cc1)C(C)(C)NC(=O)c1cccnc1Cl (centres unmarked) [Compound 81] | logP [2]: 3.23^[c]; |
| 3.78^[b] | COC(c1ccc(Cl)cc1)C(C)(C)NC(=O)c1c(F)cccc1F (centres unmarked) [Compound 82] | logP [2]: 3.79^[c]; |
| 4.24^[b] | COC(c1ccc(Cl)cc1)C(C)(C)NC(=O)c1ccccc1F (centres unmarked) [Compound 83] | logP [2]: 3.99^[c]; |
| 4.12^[b] | COC(c1ccc(Cl)cc1)C(C)(C)NC(=O)c1ccccc1Cl (centres unmarked) [Compound 84] | logP [2]: 3.87^[c]; |
| 4.25^[b] | COC(c1ccc(Cl)cc1)C(C)(C)NC(=O)c1ccccc1C(F)(F)F (centres unmarked) [Compound 85] | logP [2]: 3.99^[c]; |

| logP [1] | SMILES | further results |
| --- | --- | --- |
| 4.72^[b] | COC(c1ccc(Cl)cc1)C(C)(C)NC(=O)c1sccc1Cl (centres unmarked) [Compound 86] | logP [2]: 4.43^[c]; |
| 4.77^[b] | COC(c1ccc(Cl)cc1)C(C)(C)NC(=O)c1sccc1I (centres unmarked) [Compound 87] | logP [2]: 4.47^[c]; |
| 3.33^[b] | CCC(NC(=O)c1cccnc1Cl)C(OC)c1ccc(Cl)cc1Cl (centres unmarked) [Compound 89] |  |
| 3.35^[b] | CCC(NC(=O)c1cccnc1C(F)F)C(OC)c1ccc(Cl)cc1Cl (centres unmarked) [Compound 90] |  |
| 3.70^[b] | CCC(NC(=O)c1cccnc1C(F)(F)F)C(OC)c1ccc(Cl)cc1Cl (centres unmarked) [Compound 91] |  |
| 2.03^[b] | COC(c1cc(Cl)cc(Cl)c1)C(C)NC(=O)c1cccnc1C(F)F (centres unmarked) [Compound 93] |  |
| 3.17^[b] | COC(c1cc(Cl)cc(Cl)c1)C(C)NC(=O)c1cccnc1Cl (centres unmarked) [Compound 94] |  |
| 3.74^[b] | COC(c1cc(Cl)cc(Cl)c1)C(C)NC(=O)c1nccnc1C(F)(F)F (centres unmarked) [Compound 95] |  |
| 3.52^[b] | COC(c1cc(Cl)cc(Cl)c1)C(C)NC(=O)c1cccnc1C(F)(F)F (centres unmarked) [Compound 96] |  |
| 3.06^[b] | COC(c1ccc(Cl)cc1Cl)C1(NC(=O)c2cccnc2C(F)F)CC1 (centres unmarked) [Compound 97] |  |
| 2.80^[b] | COC(CNC(=O)c1cccnc1C(F)F)c1ccc(Cl)cc1Cl (centres unmarked) [Compound 101] |  |
| 2.75^[b] | COC(CNC(=O)c1cccnc1Cl)c1ccc(Cl)cc1Cl (centres unmarked) [Compound 102] |  |
|  | COC(c1ccc(Cl)cc1Cl)C(C)NC(=O)c1c(C)c(C)nn1C(F)F (centres unmarked) [Compound 116] | log P [3]: 3.97^[b]; log P [4]: 3.84^[c]; |
|  | COC(CNC(=O)c1cccnc1C(F)F)c1cc(Cl)cc(Cl)c1 (centres unmarked) [Compound 117] | log P [3]: 2.88^[b] |
|  | COC(CNC(=O)c1cccnc1Cl)c1cc(Cl)cc(Cl)c1 (centres unmarked) [Compound 118] | log P [3]: 2.82^[b] |
|  | COC(CNC(=O)c1cccnc1C(F)(F)F)c1cc(Cl)cc(Cl)c1 (centres unmarked) [Compound 119] | log P [3]: 3.19^[b] |
|  | COC(c1ccc(Cl)cc1)C(C)NC(=O)c1c(F)cccc1F (centres unmarked) [Compound 132, N-[1-(4-chlorophenyl)-1-methoxypropan-2-yl]-2,6-difluorobenzamide] | chromatographic logP (method [b]: LC-MS at pH 2.7, 0.1% formic acid in water / acetonitrile, read-out: log P): 3.12 |
|  | COC(c1ccc(Cl)cc1)C(C)NC(=O)c1ccccc1F (centres unmarked) [Compound 133] | log P [3]: 3.40^[b]; log P [4]: 3.44^[c]; |
|  | COC(c1ccc(Cl)cc1)C(C)NC(=O)c1c(F)cccc1C(F)(F)F (centres unmarked) [Compound 134] | log P [3]: 3.65^[b]; log P [4]: 3.61^[c]; |
|  | COC(c1ccc(Cl)cc1)C(C)NC(=O)c1cccnc1Cl (centres unmarked) [Compound 135] | log P [3]: 2.65^[b]; log P [4]: 2.62^[c]; |
|  | COC(c1ccc(Cl)cc1)C(C)NC(=O)c1ccccc1I (centres unmarked) [Compound 137] | log P [3]: 3.44^[b]; log P [4]: 3.42^[c]; |
|  | COC(c1ccccc1Cl)C(C)NC(=O)c1ccccc1[N+](=O)[O-] (centres unmarked) [Compound 138] | log P [3]: 2.82^[b]; log P [4]: 2.78^[c]; |
|  | COC(c1ccc(Cl)cc1)C(C)NC(=O)c1ccccc1[N+](=O)[O-] (centres unmarked) [Compound 139] | log P [3]: 2.83^[b]; log P [4]: 2.93^[c]; |
|  | COC(c1ccccc1Cl)C(C)NC(=O)c1ccccc1C(F)(F)F (centres unmarked) [Compound 145] | log P [3]: 3.45^[b]; log P [4]: 3.41^[c]; |
|  | COC(c1ccccc1Cl)C(C)NC(=O)c1ccccc1I (centres unmarked) [Compound 146] | log P [3]: 3.44^[b]; log P [4]: 3.40^[c]; |
|  | COC(c1ccccc1Cl)C(C)NC(=O)c1ccccc1F (centres unmarked) [Compound 147] | log P [3]: 3.44^[b]; log P [4]: 3.42^[c]; |
|  | COC(c1ccccc1Cl)C(C)NC(=O)c1ccccc1C (centres unmarked) [Compound 148] | log P [3]: 3.26^[b]; log P [4]: 3.23^[c]; |

From patent publication US20160100579A1, “NEMATICIDAL N-(2-SUBSTITUTED 2-PHENYLETHYL)CARBOXAMIDES AND N-(2-SUBSTITUTED 2-PHENYLETHYL)-THIOCARBOXAMIDES” (priority 2013, published 2016)
